# Source: paper PMC9520749, “Novel angiotensin-converting enzyme and pancreatic lipase oligopeptide inhibitors from fermented rice bran” (Frontiers in Nutrition, 2022)
# Where two headings read alike, the source gives them in different places. Ends that are not written are not given here. Peptide text beside a SMILES is read from it.
# Columns and labels:
# ACE [1] = molecular target: T1, ACE (Homo sapiens, UniProt P12821); test: ACE inhibitory activity of peptides (FAPGG substrate, absorbance 340 nm); type: biochemical
# T1 construct: purchased Sigma Co., St. Louis, Missouri, United States
# Experimental: (§1) The polypeptide was synthesized by Hangzhou Dangang Biotechnology Co., Ltd (Hangzhou, China). Human ACE, N-[3-(2-furanyl) acryloyl]-l-phenylalanyl glycyl glycine (FAPGG), p-nitrophenyl butyrate (pNPB), and pancreatic lipase were purchased from Sigma Co., St. Louis, Missouri, United States.
# (§2) According to the experimental method of Yu Fu et al. ([8]), with slight changes, 50 μL ACE (0.1 U/mL, prepared from borate buffer with pH 8.3 and 80 mM), 50 μL FAPGG (1 mM), and 100 μL borate buffer (80 mM, pH 8.3) were added to a 96-well plate. Then, 100 μL borate buffer was replaced with 1 mg/mL sample, which are three groups of parallel samples, and the initial absorbance values a1 and b1 were measured at 340 nm. Then, the plate was placed at 37°C and reacted for 30 min. The absorbance values a2 and b2 were measured at 340 nm (Multiskan GO, Thermo Scientific, Waltham, MA, USA). The absorbance value was incorporated into the following formula to calculate the inhibition rate of polypeptide against ACE activity:
# (1) ACEinhibitionrate (%)=(A-B)/A×100
# Where a1 and b1 are initial absorbance values of the blank and sample groups, respectively. a2 and b2 are absorbance values of the blank and sample groups after the reaction, respectively. A = a1–a2; B = b1–b2.
# pancreatic lipase [2] = molecular target: T2, pancreatic lipase (Sus scrofa, UniProt P00591); test: Pancreatic lipase inhibitory activity of peptides (pNPB substrate, absorbance 405 nm); type: biochemical
# T2 construct: purchased Sigma Co., St. Louis, Missouri, United States
# T2 sequence (P00591 1-450): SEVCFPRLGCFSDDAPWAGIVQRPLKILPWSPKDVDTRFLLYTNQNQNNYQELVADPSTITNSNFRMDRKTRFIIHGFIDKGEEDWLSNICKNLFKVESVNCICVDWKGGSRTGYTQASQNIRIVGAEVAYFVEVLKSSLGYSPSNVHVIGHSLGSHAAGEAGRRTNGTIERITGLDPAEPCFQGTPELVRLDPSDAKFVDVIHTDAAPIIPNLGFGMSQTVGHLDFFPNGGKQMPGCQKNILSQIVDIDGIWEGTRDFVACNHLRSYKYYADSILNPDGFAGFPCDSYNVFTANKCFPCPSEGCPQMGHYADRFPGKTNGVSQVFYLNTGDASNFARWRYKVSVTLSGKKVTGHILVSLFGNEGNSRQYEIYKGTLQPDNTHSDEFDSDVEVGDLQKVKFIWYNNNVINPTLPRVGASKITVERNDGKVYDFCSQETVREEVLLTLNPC
# Experimental: as §1
# (§3) According to the method of Magdalena mendoza-s á nchez ([1]). In the blank group, 100 μL of 0.1 M sodium phosphate buffer (pH 7.2), 50 μL pNPB (5 mM), and 50 μL pancreatic lipase (0.2 U/mL) were added to a 96-well plate. In the blank control group, 150 μL sodium phosphate buffer and 50 μL pNPB were added to the 96-well plate. In the sample group, 50 μL sodium phosphate buffer, 50 μL pNPB, 50 μL sample (1 mg/mL), and 50 μL pancreatic lipase were added to the 96-well plate. For the sample blank group, 100 μL sodium phosphate buffer, 50 μL pNPB, and 50 μL sample were added to the 96-well plate. At 37°C, the absorbance values A, B, C, and D were measured at 405 nm after 30 min of reaction. The absorbance values were incorporated into the following formula to calculate the inhibition rate of polypeptide against pancreatic lipase activity:
# (2) Pancreaticlipaseinhibitionrate (%)=(1-C-D/A-B)×100
# Where A, B, C, and D are absorbance values of the blank, blank control, sample, and sample blank groups, respectively.
# ACE [3] = molecular target: T1, ACE; test: Inhibitory kinetic analysis of ACE (Lineweaver-Burk); type: biochemical; conditions: sample 1 mg/mL, FAPGG 0.2-1 mM; read-out: inhibitory binding constant (Ki), ACE
# Experimental: (§4) The inhibition kinetics of oligopeptides GLLGY, HWP, and VYGF on ACE and pancreatic lipase were tested to determine their efficiencies. For the ACE inhibition test, the concentration of the samples GLLGY, HWP, and VYGF was 1 mg/mL, and the concentrations of the substrate FAPGG were 0.2, 0.4, 0.6, 0.8, and 1 mM. For the pancreatic lipase inhibition test, the sample HWP concentration was 1 mg/mL and the substrate pNPB concentrations were 1, 2, 3, and 5 mM. The initial velocity data were used to construct the Lineweaver–Burke plots to determine the enzyme Km (Michaelis constant), Vmax (maximum velocity), and Ki (inhibitory binding constant) ([8], [22]).
# pancreatic lipase [4] = molecular target: T2, pancreatic lipase; test: Inhibitory kinetic analysis of pancreatic lipase (Lineweaver-Burk); type: biochemical; conditions: sample 1 mg/mL, pNPB 1-5 mM; read-out: inhibitory binding constant (Ki), pancreatic lipase
# Experimental: as §4
# ACE [5] = molecular target: T1, ACE; test: In vitro simulated gastrointestinal digestion, then ACE inhibition; type: biochemical; conditions: 1 mg/mL, read-out: inhibition rate against ACE
# Experimental: as §2
# (§5) Simulated GI digestion through an in vitro pepsin–pancreatin hydrolysis method was carried out ([23]). The oligopeptides GLLGY, HWP, and VYGF were re-dissolved (3% w/v in distilled water) and adjusted to pH 2.0 with 1 M HCl. Then, pepsin (4% weight as received/weight of protein in the powder) was added. The mixture was incubated at 37°C for 2 h. The pH was then adjusted to 5.3 with 0.9 M NaHCO3 solution and further to pH 7.5 with 1 M NaOH. Pancreatin was added (4% weight as received/weight of protein in the powder), and the mixture was further incubated at 37°C for 2 h. To terminate the digestion, the test tubes were kept in boiling water for 10 min. The gastric digests (GDs) and gastric-intestinal digests (GIDs) were obtained through centrifugation (8000 × g, 10 min, 4°C), and then, the supernatants were collected, lyophilized, sealed in plastic bags, and stored at 4°C until further analysis. The ACE and pancreatic lipase inhibitory activities of GDS and GID were measured at a concentration of 1 mg/mL, and the results were expressed as activity (%) relative to that without any treatment (control group, 100%). All determinations were made in triplicate.
# pancreatic lipase [6] = molecular target: T2, pancreatic lipase; test: In vitro simulated gastrointestinal digestion, then pancreatic lipase inhibition; type: biochemical; conditions: 1 mg/mL, read-out: inhibition rate against pancreatic lipase
# Experimental: as §3, §5
# pancreatic lipase [7] = molecular target: T2, pancreatic lipase; conditions: cited from earlier work
# T1 sequence (P12821 30-1306): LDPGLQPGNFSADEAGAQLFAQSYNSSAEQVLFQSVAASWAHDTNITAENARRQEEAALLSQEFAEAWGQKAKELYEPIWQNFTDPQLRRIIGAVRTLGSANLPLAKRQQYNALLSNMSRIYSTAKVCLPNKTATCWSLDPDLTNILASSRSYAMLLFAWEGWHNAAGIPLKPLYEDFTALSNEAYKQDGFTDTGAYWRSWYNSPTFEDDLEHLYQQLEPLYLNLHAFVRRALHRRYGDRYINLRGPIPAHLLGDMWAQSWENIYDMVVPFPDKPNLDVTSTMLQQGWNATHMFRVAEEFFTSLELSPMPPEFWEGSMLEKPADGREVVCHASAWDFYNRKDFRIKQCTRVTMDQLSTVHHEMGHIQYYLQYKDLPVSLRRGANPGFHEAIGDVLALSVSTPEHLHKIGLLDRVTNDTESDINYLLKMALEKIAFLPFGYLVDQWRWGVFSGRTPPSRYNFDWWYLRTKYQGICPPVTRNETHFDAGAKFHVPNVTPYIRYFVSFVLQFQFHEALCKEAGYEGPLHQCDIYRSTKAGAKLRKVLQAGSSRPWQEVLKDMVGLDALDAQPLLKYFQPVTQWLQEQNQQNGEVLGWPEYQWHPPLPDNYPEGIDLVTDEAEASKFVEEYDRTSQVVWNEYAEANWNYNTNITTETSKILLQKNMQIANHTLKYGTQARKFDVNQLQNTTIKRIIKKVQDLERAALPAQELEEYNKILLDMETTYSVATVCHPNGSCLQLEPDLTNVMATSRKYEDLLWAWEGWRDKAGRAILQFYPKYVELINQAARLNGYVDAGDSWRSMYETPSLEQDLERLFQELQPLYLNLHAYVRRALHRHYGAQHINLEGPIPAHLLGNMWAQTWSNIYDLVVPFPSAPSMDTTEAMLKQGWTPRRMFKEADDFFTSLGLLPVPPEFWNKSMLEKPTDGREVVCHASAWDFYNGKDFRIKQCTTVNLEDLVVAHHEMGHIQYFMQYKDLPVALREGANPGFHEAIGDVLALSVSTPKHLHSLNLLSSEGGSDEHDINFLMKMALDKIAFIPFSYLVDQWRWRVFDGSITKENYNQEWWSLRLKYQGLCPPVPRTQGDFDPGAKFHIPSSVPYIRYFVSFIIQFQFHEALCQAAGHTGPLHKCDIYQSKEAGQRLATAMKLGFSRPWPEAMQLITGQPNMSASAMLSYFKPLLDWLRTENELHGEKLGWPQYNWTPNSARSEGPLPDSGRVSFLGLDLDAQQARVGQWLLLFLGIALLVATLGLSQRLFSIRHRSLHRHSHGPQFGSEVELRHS
Molecule,IC50 (ACE [1]),Ki (ACE [3]),inhibition at 1000 µg/mL (ACE [5]; after GI digestion),inhibition at 1000 µg/mL (ACE [5]; after gastric digestion),inhibition at 1000 µg/mL (ACE [5]; without GI digestion),also measured
N[C@@H](Cc1c[nH]cn1)C(=O)N[C@@H](Cc1c[nH]c2ccccc12)C(=O)N1CCC[C@H]1C(=O)O [HWP] (H-His-Trp-Pro-OH),2280 µM,1340 µM,53.6%,54.4%,57%,"inhibition at 1000 µg/mL (pancreatic lipase [2]; at 1 mg/mL, read-out: pancreatic lipase inhibition rate): 20%; IC50 (pancreatic lipase [2]; gradient test of concentration, Figure 1C): 9010 µM; Ki (pancreatic lipase [4]): 2580 µM; inhibition at 1000 µg/mL (pancreatic lipase [6]; after GI digestion): 18.4%; inhibition at 1000 µg/mL (pancreatic lipase [6]; after gastric digestion): 19.9%; inhibition at 1000 µg/mL (pancreatic lipase [6]; without GI digestion): 21.5%"
CC(C)[C@H](N)C(=O)N[C@@H](Cc1ccc(O)cc1)C(=O)NCC(=O)N[C@@H](Cc1ccccc1)C(=O)O [VYGF] (H-VYGF-OH),2060 µM,933 µM,49.1%,50.9%,54.8%,
O=c1cc(-c2ccc(O)cc2)oc2cc(O)cc(O)c12 [apigenin],,,,,,IC50 (pancreatic lipase [7]): 450 ± 30 µM; type of pancreatic lipase inhibition (pancreatic lipase [7]): competitively inhibited
GLLGY [GLLGY],1920 µM,1570 µM,51.3%,52.6%,55.8%,
Leu-Pro,,,,,,pancreatic lipase inhibitory activity (pancreatic lipase [7]; peptide of bovine and camel casein hydrolysates): exhibits pancreatic lipase inhibitory activity
VSTDVNIE [cocoa peptide],,,,,,inhibitory effect on pancreatic lipase (pancreatic lipase [7]; cocoa peptides): had inhibitory effect
